From patent publication US20080319000A1, “Use of 3,1IB-Cis-Dihydrotetrabenazine for the Treatment of Symptoms of Huntingtons Disease” (CAMBRIDGE LABORATORIES (IRELAND) LIMITED, priority 2005, published 2008)

Legend:
Male Sprague-Dawley rats = assay: Spontaneous locomotor activity in rats (sedative properties); type: in vivo; settings: for Inactivity Duration / Large movements Duration / Large movements Occurrence: 20 min period, mean ± SEM n=12
Procedure: A study was carried out in rats to determine whether the dihydrotetrabenazine isomers of the invention have sedative properties. […] Male Sprague-Dawley rats, (Charles River Laboratories, Saint-Germain/L'Arbresle, France), weighing 200-250 g at the beginning of the study, were used for the studies. […] The rats were allowed to acclimatize to their conditions for at least five days before commencement of the study. The rats received food ([…], France, ref. 811002) and water (tap water in water bottle) ad libitum. Solutions of each test compound in corn oil were freshly prepared on the day of the experiment. Haloperidol was prepared in hydroxyethylcellulose, 0.5% in deionized water. Either the vehicle or the test compounds were administered as a single dose (0.3, 1, 3 and 10 mg/kg, 2 mL/kg i.p.). The reference compound haloperidol (1 mg/kg) was administered i.p. […] The animals were placed in plexiglass cages under a video camera in a room with low light intensity (maximum 50 lux). At forty five minutes and 3 hours after administration, locomotor activity was determined during 20 minute periods using a video image analyzer (Videotrack, View Point, France). […] The number and duration of ambulatory movements and duration of inactivity was measured. At the end of the locomotor activity measurement (45 minutes and 3 hours), palpebral closure and arousal were be scored as follows in the plexiglass cage: […] Image tracking was performed using a video camera placed above the plexiglass cage, recording overall locomotor activity. […] The results were expressed as the means ±SEMs of the 12 individual values. Statistical analyses were carried out using ANOVA (one way) and Dunnett's t-test and with the non parametric test of Kruskal-Wallis followed by a Mann & Whitney U-test for the sedation cotation. A p value of p<0.05 was taken as indicating significance. Group size n=12 Group 1: Reference, haloperidol (1 mg/kg i.p.) Group 2: Vehicle control group (2 ml/kg i.p.) Group 3: tetrabenazine (0.3 mg/kg i.p) Group 4: tetrabenazine (1 mg/kg i.p) Group 5: tetrabenazine (3 mg/kg i.p) Group 6: tetrabenazine (10 mg/kg i.p) Group 7: […]

VMAT1 = target: T1, VMAT1 (Homo sapiens, UniProt P54219); assay: VMAT1 affinity; type: binding
T1 sequence (P54219 1-525): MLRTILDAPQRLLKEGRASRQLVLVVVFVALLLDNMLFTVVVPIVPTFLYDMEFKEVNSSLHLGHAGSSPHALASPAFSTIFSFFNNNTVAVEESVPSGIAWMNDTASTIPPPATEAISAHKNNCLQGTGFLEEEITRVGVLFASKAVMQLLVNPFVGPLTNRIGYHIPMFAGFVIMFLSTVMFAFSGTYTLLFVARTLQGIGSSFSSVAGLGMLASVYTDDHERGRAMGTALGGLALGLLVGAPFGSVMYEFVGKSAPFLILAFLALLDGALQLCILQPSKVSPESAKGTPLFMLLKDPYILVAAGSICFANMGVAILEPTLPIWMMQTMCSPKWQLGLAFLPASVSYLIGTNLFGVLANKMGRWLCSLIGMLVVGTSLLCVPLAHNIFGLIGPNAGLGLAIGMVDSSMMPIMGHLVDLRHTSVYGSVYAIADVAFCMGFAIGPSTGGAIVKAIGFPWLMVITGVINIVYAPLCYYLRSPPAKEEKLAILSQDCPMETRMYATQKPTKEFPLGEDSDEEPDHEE

adrenergic receptors = assay: Adrenergic receptor inhibition; type: binding
[1] = target: T2, monoamine oxidase isoform A (Homo sapiens, UniProt P21397); assay: Monoamine oxidase A inhibition; type: biochemical
T2 sequence (P21397 1-527): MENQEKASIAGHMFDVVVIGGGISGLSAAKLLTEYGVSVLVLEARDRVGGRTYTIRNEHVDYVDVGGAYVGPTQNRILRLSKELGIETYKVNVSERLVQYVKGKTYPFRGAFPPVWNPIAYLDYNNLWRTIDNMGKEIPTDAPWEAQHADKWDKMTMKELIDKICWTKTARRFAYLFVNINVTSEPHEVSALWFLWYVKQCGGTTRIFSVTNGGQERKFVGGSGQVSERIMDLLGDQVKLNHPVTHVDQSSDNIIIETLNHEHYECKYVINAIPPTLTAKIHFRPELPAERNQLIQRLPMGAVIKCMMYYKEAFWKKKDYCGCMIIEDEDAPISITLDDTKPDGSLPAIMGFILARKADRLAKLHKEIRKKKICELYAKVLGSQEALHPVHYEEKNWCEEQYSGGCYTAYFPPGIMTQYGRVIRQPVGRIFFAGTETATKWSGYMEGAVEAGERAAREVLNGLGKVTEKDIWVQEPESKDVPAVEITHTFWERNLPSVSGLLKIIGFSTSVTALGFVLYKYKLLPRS

[2] = target: 5-hydroxytryptamine isoform 1b (Homo sapiens, UniProt P28222); assay: 5-hydroxytryptamine 1b inhibition; type: binding
Sequence of 5-hydroxytryptamine isoform 1b (P28222 whole entry, canonical isoform): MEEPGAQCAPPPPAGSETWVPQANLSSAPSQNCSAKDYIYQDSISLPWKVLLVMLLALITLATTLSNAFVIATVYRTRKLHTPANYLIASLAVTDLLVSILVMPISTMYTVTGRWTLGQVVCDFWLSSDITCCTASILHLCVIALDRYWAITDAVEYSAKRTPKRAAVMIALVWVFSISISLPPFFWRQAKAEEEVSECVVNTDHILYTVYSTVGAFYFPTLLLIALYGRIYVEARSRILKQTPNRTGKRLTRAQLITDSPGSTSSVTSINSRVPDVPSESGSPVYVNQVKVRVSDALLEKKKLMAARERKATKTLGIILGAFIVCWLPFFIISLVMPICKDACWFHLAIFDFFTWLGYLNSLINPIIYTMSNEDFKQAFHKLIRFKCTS

[3] = target: T3, monoamine oxidase isoform B (Homo sapiens, UniProt P27338); assay: Monoamine oxidase B inhibition; type: biochemical
T3 sequence (P27338 1-520): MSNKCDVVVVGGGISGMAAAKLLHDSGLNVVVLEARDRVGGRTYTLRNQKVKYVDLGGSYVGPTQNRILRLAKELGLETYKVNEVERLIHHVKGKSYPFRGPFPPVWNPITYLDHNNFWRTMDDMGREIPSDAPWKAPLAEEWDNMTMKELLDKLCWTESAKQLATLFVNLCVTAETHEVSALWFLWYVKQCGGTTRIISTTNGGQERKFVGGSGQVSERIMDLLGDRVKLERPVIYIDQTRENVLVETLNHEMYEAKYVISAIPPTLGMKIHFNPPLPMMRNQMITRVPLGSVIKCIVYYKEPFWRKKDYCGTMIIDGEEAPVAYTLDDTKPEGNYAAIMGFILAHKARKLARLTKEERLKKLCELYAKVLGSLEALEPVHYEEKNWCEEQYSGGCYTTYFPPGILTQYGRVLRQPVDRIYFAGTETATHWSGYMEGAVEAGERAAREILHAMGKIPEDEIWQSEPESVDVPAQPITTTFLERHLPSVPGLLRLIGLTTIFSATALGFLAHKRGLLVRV

[4] = target: T4, catechol O-methyl transferase (COMT) (Homo sapiens, UniProt P21964); assay: COMT inhibition; type: biochemical
T4 sequence (P21964 1-271): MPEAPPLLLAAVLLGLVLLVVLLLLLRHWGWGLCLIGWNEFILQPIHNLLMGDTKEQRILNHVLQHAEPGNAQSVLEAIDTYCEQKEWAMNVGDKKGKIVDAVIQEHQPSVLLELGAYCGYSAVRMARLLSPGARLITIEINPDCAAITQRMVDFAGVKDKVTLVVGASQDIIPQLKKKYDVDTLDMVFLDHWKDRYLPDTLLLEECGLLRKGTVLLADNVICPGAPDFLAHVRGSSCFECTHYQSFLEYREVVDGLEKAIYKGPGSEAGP

[5] = target: Dopamine Transporter (DAT) (Homo sapiens, UniProt Q01959); assay: Dopamine Transporter (DAT) binding
Sequence of Dopamine Transporter (DAT) (Q01959 whole entry, species assumed): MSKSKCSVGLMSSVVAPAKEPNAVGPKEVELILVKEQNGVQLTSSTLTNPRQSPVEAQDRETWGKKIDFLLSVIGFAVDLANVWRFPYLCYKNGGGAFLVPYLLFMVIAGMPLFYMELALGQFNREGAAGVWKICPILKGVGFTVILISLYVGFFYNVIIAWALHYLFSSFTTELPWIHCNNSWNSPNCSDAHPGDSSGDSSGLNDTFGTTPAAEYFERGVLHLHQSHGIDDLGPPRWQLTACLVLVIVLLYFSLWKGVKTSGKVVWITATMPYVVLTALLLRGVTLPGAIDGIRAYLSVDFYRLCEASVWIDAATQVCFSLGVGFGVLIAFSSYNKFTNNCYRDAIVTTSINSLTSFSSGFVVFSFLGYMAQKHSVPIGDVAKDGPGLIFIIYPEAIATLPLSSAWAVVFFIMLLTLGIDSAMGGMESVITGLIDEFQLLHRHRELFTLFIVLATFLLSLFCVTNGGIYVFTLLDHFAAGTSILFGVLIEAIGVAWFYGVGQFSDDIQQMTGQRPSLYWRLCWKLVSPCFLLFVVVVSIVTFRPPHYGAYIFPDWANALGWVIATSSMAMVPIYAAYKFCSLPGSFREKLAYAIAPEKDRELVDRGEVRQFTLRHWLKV

[6] = target: serotonin transporter protein SERT (Homo sapiens, UniProt P31645); assay: Serotonin transporter SERT inhibition; type: binding
Sequence of serotonin transporter protein SERT (P31645 whole entry, canonical isoform): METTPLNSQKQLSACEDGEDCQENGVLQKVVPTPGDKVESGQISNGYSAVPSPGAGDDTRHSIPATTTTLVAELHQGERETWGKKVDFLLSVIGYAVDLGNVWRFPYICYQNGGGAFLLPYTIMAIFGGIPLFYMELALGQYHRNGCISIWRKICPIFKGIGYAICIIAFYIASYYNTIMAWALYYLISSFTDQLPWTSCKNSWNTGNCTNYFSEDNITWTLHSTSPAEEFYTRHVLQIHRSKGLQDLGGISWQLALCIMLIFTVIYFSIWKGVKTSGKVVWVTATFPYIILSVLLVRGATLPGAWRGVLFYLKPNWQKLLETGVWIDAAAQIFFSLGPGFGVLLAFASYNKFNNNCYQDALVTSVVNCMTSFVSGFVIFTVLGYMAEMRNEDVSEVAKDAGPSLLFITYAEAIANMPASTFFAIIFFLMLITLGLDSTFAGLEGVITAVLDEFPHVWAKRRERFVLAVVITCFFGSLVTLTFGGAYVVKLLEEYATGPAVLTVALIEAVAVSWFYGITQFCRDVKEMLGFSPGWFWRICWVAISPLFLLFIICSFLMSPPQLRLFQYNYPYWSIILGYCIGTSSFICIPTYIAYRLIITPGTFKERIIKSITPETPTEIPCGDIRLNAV

[7] = target: 5-hydroxytryptamine isoform 1d (Homo sapiens, UniProt P28221); assay: 5-hydroxytryptamine 1d inhibition; type: binding
Sequence of 5-hydroxytryptamine isoform 1d (P28221 whole entry, canonical isoform): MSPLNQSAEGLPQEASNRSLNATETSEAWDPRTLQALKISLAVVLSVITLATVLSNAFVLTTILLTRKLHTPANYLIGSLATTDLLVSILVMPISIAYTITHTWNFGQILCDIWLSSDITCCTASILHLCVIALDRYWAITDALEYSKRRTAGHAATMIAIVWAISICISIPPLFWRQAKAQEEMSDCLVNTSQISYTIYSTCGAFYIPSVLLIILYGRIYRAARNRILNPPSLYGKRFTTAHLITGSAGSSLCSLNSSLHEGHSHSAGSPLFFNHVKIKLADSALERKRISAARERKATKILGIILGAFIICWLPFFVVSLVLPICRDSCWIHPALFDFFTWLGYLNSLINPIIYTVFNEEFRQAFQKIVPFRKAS

dopamine receptor = assay: Dopamine receptor binding
[8] = locomotor studies carried out on rats
[9] = rats, 0.3 mg/kg i.p., 45 minutes after administration
[10] = rats, 0.3 mg/kg i.p., 3 hours after administration
[11] = rats, 1 mg/kg i.p., 45 minutes after administration
[12] = rats, 1 mg/kg i.p., 3 hours after administration
[13] = rats, 3 mg/kg i.p., 45 minutes after administration
[14] = rats, 3 mg/kg i.p., 3 hours after administration
[15] = rats, 10 mg/kg i.p., 45 minutes after administration
[16] = rats, 10 mg/kg i.p., 3 hours after administration
[17] = rats, 0.3, 1, 3 and 10 mg/kg i.p., 45 minutes and 3 hours after administration

With `COc1cc2c(cc1OC)C1CC(=O)C(CC(C)C)CN1CC2` (racemic) [tetrabenazine, 1,3,4,6,7,11b-hexahydro-9,10-dimethoxy-3-(2-methylpropyl)-2H-benzo(a)quinolizin-2-one] the sedative effect (Male Sprague-Dawley rats; [8]) was “dose related sedative effect”, the “Inactivity Duration” value (Male Sprague-Dawley rats; [9]) was 390.4 ± 37.4 s and the “Large movements Duration” value (Male Sprague-Dawley rats; [9]) was 66.8 ± 10.7 s. The “Large movements Occurrence” value (Male Sprague-Dawley rats; [9]) was 253 ± 32, the “Inactivity Duration” value (Male Sprague-Dawley rats; [10]) was 545.9 ± 37.1 s and the “Large movements Duration” value (Male Sprague-Dawley rats; [10]) was 24.3 ± 4.2 s. For the same compound, the “Large movements Occurrence” value (Male Sprague-Dawley rats; [10]) was 96 ± 14, the “Inactivity Duration” value (Male Sprague-Dawley rats; [11]) was 456.5 ± 50.5 s and the “Large movements Duration” value (Male Sprague-Dawley rats; [11]) was 46.5 ± 8.6 s. For the same compound, the “Large movements Occurrence” value (Male Sprague-Dawley rats; [11]) was 189 ± 32, the “Inactivity Duration” value (Male Sprague-Dawley rats; [12]) was 556.9 ± 31.1 s and the “Large movements Duration” value (Male Sprague-Dawley rats; [12]) was 21.5 ± 4.0 s. The “Large movements Occurrence” value (Male Sprague-Dawley rats; [12]) was 90 ± 16, the “Inactivity Duration” value (Male Sprague-Dawley rats; [13]) was 697.8 ± 39.7 s and the “Large movements Duration” value (Male Sprague-Dawley rats; [13]) was 8.7 ± 5.9 s. The “Large movements Occurrence” value (Male Sprague-Dawley rats; [13]) was 38 ± 25, the “Inactivity Duration” value (Male Sprague-Dawley rats; [14]) was 729.9 ± 26.8 s and the “Large movements Duration” value (Male Sprague-Dawley rats; [14]) was 1.7 ± 0.9 s. For the same compound, the “Large movements Occurrence” value (Male Sprague-Dawley rats; [14]) was 9 ± 4, the “Inactivity Duration” value (Male Sprague-Dawley rats; [15]) was 723.1 ± 46.5 s and the “Large movements Duration” value (Male Sprague-Dawley rats; [15]) was 0.2 ± 0.2 s. For the same compound, the “Large movements Occurrence” value (Male Sprague-Dawley rats; [15]) was 1 ± 1, the “Inactivity Duration” value (Male Sprague-Dawley rats; [16]) was 762.1 ± 40.7 s and the “Large movements Duration” value (Male Sprague-Dawley rats; [16]) was 0.6 ± 0.3 s. The “Large movements Occurrence” value (Male Sprague-Dawley rats; [16]) was 3 ± 1, the sedative effect (Male Sprague-Dawley rats; [17]) was “dose-dependent sedative effect” and the “affinity for VMAT1” value (VMAT1) was “only a low affinity”.

`COc1cc2c(cc1OC)C1CC(O)C(CC(C)C)CN1CC2` (single isomer, unassigned; isomer c) [Isomer C] was tested, and the “inhibition of the adrenergic receptors” value (adrenergic receptors) was “either weakly active or inactive”, the “inhibitory activity against monoamine oxidase isoform A” value [1] was “no inhibitory activity” and the “inhibitory activity against 5-hydroxytryptamine isoform 1b” value [2] was “no inhibitory activity”. The “inhibitory activity against monoamine oxidase isoform B” value [3] was “no inhibitory activity”, the “inhibitory activity against catechol O-methyl transferase (COMT)” value [4] was “no inhibitory activity” and the “Dopamine Transporter (DAT) binding activity” value [5] was “lack Dopamine Transporter (DAT) binding activity”. The “inhibition of the serotonin transporter protein SERT” value [6] was “potent inhibitors”, the sedative effect (Male Sprague-Dawley rats; [8]) was “no sedative effects were observed” and the “Inactivity Duration” value (Male Sprague-Dawley rats; [9]) was 323.7 ± 25.6 s. The “Large movements Duration” value (Male Sprague-Dawley rats; [9]) was 79.2 ± 10.0 s, the “Large movements Occurrence” value (Male Sprague-Dawley rats; [9]) was 285 ± 34 and the “Inactivity Duration” value (Male Sprague-Dawley rats; [10]) was 519.3 ± 33.7 s. The “Large movements Duration” value (Male Sprague-Dawley rats; [10]) was 31.4 ± 6.0 s, the “Large movements Occurrence” value (Male Sprague-Dawley rats; [10]) was 113 ± 19 and the “Inactivity Duration” value (Male Sprague-Dawley rats; [11]) was 324.6 ± 38.1 s. For the same compound, the “Large movements Duration” value (Male Sprague-Dawley rats; [11]) was 71.8 ± 8.3 s, the “Large movements Occurrence” value (Male Sprague-Dawley rats; [11]) was 295 ± 30 and the “Inactivity Duration” value (Male Sprague-Dawley rats; [12]) was 510.2 ± 44.9 s. For the same compound, the “Large movements Duration” value (Male Sprague-Dawley rats; [12]) was 30.3 ± 6.5 s, the “Large movements Occurrence” value (Male Sprague-Dawley rats; [12]) was 128 ± 24 and the “Inactivity Duration” value (Male Sprague-Dawley rats; [13]) was 322.7 ± 27.8 s. For the same compound, the “Large movements Duration” value (Male Sprague-Dawley rats; [13]) was 84.0 ± 9.4 s, the “Large movements Occurrence” value (Male Sprague-Dawley rats; [13]) was 308 ± 36 and the “Inactivity Duration” value (Male Sprague-Dawley rats; [14]) was 493.6 ± 38.5 s. The “Large movements Duration” value (Male Sprague-Dawley rats; [14]) was 30.2 ± 5.5 s, the “Large movements Occurrence” value (Male Sprague-Dawley rats; [14]) was 125 ± 22 and the “Inactivity Duration” value (Male Sprague-Dawley rats; [15]) was 368.7 ± 30.9 s. For the same compound, the “Large movements Duration” value (Male Sprague-Dawley rats; [15]) was 66.5 ± 9.9 s, the “Large movements Occurrence” value (Male Sprague-Dawley rats; [15]) was 254 ± 32 and the “Inactivity Duration” value (Male Sprague-Dawley rats; [16]) was 465.7 ± 49.0 s. The “Large movements Duration” value (Male Sprague-Dawley rats; [16]) was 42.7 ± 8.0 s, the “Large movements Occurrence” value (Male Sprague-Dawley rats; [16]) was 164 ± 30 and the sedative effect (Male Sprague-Dawley rats; [17]) was “no sedative effects at any time”. The hyperlocomotor effect (Male Sprague-Dawley rats; rats, 3 hours after administration) was “slight and non-significant hyperlocomotor effect”, the “inhibitory activity against 5-hydroxytryptamine isoform 1d” value [7] was “no inhibitory activity” and the “dopamine receptor binding activity” value (dopamine receptor) was “only weak or non-existent”.

`O=C(CCCN1CCC(O)(c2ccc(Cl)cc2)CC1)c1ccc(F)cc1` [haloperidol, reference compound] was tested, and the “Inactivity Duration” value (Male Sprague-Dawley rats; [11]) was 637.2 ± 60.1 s, the “Large movements Duration” value (Male Sprague-Dawley rats; [11]) was 14.8 ± 8.5 s and the “Large movements Occurrence” value (Male Sprague-Dawley rats; [11]) was 58 ± 33. The “Inactivity Duration” value (Male Sprague-Dawley rats; [12]) was 723.6 ± 50.2 s, the “Large movements Duration” value (Male Sprague-Dawley rats; [12]) was 2.2 ± 2.0 s and the “Large movements Occurrence” value (Male Sprague-Dawley rats; [12]) was 9 ± 8.
